Source: article PMC4979471 (Cell Death Discovery, 2015)
Read-outs that look alike come from different tables or passages of the source.

Assays:
Assay in all cases: Kinase selectivity, P33-radiolabeled assay
Format in all cases: biochemical
Settings in all cases: 10 μM ATP
[1] = target: T1, CAMKK2 (Homo sapiens, UniProt Q96RR4)
T1 construct: purchased Reaction Biology Corp
Procedure, shortened: (§1)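 Activity relative to DMSO controls (%) was measured for compound at 10 μM. Assays ran at 10 μM ATP, in duplicate.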

[2] = target: T2, CDK7/cyclin H (Homo sapiens, UniProt P50613)
T2 construct: purchased Reaction Biology Corp
T2 sequence (P50613 whole entry): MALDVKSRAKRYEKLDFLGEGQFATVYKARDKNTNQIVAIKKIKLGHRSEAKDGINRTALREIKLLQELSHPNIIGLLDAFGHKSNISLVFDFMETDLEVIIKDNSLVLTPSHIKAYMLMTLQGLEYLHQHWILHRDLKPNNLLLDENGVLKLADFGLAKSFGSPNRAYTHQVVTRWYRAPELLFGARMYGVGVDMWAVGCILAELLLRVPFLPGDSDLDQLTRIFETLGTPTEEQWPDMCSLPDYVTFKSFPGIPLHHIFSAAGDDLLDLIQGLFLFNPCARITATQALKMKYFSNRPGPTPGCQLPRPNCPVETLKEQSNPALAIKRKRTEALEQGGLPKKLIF
T2 sequence (P51946 whole entry partner): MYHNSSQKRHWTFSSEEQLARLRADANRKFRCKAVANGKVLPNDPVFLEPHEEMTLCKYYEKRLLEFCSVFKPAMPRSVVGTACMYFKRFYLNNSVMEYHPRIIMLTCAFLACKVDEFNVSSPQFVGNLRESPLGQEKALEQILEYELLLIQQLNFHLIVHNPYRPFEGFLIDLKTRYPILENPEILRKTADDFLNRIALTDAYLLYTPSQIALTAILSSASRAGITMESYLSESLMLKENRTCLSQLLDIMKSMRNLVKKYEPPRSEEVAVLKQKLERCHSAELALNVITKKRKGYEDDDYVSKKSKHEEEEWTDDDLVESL
T2 sequence (P51948 whole entry partner): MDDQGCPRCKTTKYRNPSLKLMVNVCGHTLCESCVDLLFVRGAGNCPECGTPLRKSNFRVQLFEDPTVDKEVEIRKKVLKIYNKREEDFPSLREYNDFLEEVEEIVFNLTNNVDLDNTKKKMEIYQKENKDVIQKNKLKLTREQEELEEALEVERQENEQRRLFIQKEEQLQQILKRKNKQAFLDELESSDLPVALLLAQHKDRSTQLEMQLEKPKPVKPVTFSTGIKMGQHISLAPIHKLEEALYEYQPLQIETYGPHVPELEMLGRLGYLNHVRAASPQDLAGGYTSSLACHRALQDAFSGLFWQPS
Procedure, shortened: as §1

[3] = target: T3, CLK1 (Homo sapiens, UniProt P49759)
T3 construct: purchased Reaction Biology Corp
T3 sequence (P49759 whole entry): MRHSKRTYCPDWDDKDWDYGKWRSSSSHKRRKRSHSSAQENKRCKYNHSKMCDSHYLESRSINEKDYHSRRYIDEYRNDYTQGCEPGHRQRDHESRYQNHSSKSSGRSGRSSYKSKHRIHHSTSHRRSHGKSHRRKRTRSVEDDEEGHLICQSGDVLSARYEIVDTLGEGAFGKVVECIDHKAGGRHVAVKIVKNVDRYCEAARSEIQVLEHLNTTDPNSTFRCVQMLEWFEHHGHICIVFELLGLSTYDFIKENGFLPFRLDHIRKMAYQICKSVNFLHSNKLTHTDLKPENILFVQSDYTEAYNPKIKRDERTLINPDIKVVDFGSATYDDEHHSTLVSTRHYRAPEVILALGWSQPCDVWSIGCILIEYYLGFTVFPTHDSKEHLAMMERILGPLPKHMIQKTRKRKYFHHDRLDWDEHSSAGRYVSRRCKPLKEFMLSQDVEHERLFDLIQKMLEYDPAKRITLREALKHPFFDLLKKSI
Procedure, shortened: as §1

[4] = target: T4, KDR/VEGFR2 (Homo sapiens, UniProt P35968)
T4 construct: purchased Reaction Biology Corp
T4 sequence (P35968 20-1356): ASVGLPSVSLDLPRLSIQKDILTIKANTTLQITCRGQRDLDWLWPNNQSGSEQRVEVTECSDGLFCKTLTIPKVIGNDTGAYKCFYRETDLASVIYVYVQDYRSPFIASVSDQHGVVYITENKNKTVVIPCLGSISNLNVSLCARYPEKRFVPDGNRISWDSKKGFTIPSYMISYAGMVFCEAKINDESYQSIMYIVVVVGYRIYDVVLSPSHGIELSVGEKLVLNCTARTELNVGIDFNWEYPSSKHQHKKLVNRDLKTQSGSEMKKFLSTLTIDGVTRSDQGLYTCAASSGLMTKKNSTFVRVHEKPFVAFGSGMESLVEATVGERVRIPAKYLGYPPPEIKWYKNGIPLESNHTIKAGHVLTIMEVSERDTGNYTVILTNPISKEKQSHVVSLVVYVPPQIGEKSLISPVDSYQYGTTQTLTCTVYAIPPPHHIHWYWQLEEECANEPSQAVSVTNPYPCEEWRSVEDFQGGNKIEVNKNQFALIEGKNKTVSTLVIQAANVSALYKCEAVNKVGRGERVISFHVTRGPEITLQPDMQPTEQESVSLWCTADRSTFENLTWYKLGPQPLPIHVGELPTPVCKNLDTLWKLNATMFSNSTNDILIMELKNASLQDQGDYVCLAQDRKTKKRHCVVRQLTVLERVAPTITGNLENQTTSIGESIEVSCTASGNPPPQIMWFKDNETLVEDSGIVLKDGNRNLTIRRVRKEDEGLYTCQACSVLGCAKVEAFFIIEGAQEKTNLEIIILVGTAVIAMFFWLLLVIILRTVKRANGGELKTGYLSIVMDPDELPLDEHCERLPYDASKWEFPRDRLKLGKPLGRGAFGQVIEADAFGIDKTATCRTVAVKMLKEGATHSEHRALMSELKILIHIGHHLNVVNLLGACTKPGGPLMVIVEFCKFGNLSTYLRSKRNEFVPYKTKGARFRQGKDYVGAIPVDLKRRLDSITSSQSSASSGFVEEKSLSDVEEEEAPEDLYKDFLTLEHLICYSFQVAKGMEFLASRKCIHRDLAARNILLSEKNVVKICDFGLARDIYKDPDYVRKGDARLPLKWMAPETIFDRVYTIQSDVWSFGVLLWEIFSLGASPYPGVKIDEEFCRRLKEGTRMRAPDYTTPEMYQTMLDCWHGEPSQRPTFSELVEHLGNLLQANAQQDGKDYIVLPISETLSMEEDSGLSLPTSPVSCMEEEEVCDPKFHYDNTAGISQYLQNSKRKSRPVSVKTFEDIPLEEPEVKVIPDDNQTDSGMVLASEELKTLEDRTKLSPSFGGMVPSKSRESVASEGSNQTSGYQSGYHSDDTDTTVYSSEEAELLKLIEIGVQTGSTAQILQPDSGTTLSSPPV
Procedure, shortened: as §1

[5] = target: T5, MST3/STK24 (Homo sapiens, UniProt Q9Y6E0)
T5 construct: purchased Reaction Biology Corp
T5 sequence (Q9Y6E0 whole entry): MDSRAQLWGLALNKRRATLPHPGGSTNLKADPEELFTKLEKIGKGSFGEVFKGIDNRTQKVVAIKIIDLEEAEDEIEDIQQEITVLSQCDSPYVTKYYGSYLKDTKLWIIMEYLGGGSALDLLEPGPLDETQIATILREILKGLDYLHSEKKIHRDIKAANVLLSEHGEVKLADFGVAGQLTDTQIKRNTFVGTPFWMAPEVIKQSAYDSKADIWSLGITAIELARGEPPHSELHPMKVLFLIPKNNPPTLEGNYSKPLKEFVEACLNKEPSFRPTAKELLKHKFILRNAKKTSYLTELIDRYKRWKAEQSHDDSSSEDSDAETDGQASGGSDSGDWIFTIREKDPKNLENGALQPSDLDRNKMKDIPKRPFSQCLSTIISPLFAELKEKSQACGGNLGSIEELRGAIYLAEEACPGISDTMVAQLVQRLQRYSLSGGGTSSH
Procedure, shortened: as §1

[6] = target: T6, MYO3b (Homo sapiens, UniProt Q8WXR4)
T6 construct: purchased Reaction Biology Corp
T6 sequence (Q8WXR4 1-1341): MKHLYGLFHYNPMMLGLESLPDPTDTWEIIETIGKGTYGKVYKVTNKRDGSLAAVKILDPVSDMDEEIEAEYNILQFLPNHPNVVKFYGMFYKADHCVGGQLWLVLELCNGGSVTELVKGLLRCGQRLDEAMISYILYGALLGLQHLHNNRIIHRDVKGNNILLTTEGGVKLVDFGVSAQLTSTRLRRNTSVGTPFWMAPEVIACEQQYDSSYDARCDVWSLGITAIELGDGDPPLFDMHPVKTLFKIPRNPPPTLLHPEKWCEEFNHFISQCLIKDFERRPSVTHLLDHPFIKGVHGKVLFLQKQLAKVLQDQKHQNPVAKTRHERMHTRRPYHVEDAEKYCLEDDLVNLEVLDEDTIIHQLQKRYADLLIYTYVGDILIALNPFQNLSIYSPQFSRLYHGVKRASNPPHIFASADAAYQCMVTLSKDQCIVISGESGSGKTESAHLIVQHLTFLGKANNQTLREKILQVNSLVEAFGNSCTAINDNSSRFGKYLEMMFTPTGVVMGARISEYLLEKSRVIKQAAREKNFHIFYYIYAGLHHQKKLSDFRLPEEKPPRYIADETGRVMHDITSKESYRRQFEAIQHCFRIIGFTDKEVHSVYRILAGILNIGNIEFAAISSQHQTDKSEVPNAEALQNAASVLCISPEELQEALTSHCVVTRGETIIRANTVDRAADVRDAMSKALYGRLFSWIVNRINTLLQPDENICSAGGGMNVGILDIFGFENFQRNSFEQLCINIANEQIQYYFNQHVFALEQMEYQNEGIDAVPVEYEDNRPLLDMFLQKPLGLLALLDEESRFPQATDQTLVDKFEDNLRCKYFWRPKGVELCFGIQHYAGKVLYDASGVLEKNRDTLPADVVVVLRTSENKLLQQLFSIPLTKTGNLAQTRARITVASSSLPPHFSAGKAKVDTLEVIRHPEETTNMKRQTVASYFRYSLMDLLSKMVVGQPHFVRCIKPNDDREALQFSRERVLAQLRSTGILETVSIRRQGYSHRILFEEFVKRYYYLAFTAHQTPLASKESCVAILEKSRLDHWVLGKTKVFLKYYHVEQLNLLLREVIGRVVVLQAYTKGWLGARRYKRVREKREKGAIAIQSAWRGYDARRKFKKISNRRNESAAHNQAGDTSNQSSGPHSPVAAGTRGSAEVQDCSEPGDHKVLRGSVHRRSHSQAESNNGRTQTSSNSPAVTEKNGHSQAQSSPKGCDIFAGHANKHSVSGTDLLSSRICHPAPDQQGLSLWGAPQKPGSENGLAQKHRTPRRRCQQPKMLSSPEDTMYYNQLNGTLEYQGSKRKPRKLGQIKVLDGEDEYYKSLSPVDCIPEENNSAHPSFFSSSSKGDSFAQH
Procedure, shortened: as §1

[7] = target: T7, TAOK1 (Homo sapiens, UniProt Q7L7X3)
T7 construct: purchased Reaction Biology Corp
T7 sequence (Q7L7X3 1-1001): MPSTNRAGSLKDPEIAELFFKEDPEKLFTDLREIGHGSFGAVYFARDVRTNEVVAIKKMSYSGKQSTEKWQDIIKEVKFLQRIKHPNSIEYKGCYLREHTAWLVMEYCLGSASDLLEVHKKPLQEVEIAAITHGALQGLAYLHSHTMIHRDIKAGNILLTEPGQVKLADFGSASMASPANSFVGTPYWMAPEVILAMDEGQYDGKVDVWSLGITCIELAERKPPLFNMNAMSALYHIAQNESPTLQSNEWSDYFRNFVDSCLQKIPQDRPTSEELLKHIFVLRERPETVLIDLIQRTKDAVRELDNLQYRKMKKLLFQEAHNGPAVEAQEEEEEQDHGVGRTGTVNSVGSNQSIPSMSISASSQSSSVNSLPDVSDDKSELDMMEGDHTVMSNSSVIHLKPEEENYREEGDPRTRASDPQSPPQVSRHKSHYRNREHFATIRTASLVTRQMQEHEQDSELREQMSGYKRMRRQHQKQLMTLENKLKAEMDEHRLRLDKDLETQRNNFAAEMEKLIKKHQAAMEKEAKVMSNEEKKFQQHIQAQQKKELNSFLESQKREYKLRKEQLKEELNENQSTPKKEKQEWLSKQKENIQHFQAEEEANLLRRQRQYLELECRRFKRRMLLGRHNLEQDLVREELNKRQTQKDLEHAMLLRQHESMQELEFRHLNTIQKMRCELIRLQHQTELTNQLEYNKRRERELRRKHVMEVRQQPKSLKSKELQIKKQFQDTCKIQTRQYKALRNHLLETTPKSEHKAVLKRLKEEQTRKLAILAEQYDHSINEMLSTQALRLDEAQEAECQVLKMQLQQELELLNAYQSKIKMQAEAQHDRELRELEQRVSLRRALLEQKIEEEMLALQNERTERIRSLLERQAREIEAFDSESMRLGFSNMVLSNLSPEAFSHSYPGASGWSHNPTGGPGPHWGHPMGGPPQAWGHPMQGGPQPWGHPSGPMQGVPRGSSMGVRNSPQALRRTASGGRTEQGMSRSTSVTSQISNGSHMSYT
Procedure, shortened: as §1

[8] = read-out: % Enzyme Activity (relative to DMSO controls) AVG
[9] = read-out: % Enzyme Activity (relative to DMSO controls) Data 1
[10] = read-out: % Enzyme Activity (relative to DMSO controls) Data 2

T1 sequence (Q96RR4 whole entry): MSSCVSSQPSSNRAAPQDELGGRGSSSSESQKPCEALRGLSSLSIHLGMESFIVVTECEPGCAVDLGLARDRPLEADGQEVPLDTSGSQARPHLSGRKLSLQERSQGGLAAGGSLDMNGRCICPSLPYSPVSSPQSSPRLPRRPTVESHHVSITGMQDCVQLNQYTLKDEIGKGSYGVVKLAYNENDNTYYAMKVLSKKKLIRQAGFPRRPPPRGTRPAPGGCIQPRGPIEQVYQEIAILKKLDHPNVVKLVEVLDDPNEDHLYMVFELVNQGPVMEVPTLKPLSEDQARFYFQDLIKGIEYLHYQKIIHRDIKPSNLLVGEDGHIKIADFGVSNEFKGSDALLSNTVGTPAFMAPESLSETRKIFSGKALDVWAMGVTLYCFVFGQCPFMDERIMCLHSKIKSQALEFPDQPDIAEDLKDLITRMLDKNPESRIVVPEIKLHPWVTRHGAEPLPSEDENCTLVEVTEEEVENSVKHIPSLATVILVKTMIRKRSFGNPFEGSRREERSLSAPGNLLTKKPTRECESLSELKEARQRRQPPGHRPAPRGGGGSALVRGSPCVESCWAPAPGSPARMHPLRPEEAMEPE

CC(C)(C)C(=O)N1N=CC[C@H]1c1ccccc1 [GSK′963]
remaining activity at 10 µM [1, 8]: 83% | remaining activity at 10 µM [1, 9]: 86.1% | remaining activity at 10 µM [1, 10]: 80% | remaining activity at 10 µM [2, 8]: 96.7% | remaining activity at 10 µM [2, 9]: 98.8% | remaining activity at 10 µM [2, 10]: 94.6% | remaining activity at 10 µM [3, 8]: 107% | remaining activity at 10 µM [3, 9]: 108% | remaining activity at 10 µM [3, 10]: 106% | remaining activity at 10 µM [4, 8]: 97.1% | remaining activity at 10 µM [4, 9]: 96.8% | remaining activity at 10 µM [4, 10]: 97.5% | remaining activity at 10 µM [5, 8]: 87.4% | remaining activity at 10 µM [5, 9]: 87.3% | remaining activity at 10 µM [5, 10]: 87.5% | remaining activity at 10 µM [6, 8]: 111% | remaining activity at 10 µM [6, 9]: 111% | remaining activity at 10 µM [6, 10]: 111% | remaining activity at 10 µM [7, 8]: 99.3% | remaining activity at 10 µM [7, 9]: 101% | remaining activity at 10 µM [7, 10]: 97.8%
